Experimental findings from patent publication US4450269A, “Mono-5-substituted-3-chloro-4H-1,2,6-thiadiazin-4-one antifungal agents” (FMC Corporation, priority 1980, dated 1984) are described below.

One assay deals with Fusarium solani. In words: Mycelial growth test. The format is cell-based. The conditions noted are these: for Percent Fungus Growth Inhibition / inhibition at 5 ppm / inhibition at 10 ppm / inhibition at 20 ppm: PS, 72 hours; for inhibition at 5 ppm / inhibition at 10 ppm / inhibition at 20 ppm / inhibition at 40 ppm: Fusarium solani, 72 h; for inhibition at 5 ppm / inhibition at 10 ppm / inhibition at 20 ppm: read-out: Percent Fungus Growth Inhibition; for inhibition at 40 ppm: read-out: Percent Fungus Growth Inhibition, PS, 40 ppm, 72 hours.

A further assay relates to Pythium ultimum. Description: Mycelial growth test. To be noted: PU; for Percent Fungus Growth Inhibition: 72 hours; for inhibition at 5 ppm / inhibition at 10 ppm / inhibition at 20 ppm / inhibition at 40 ppm: Globisporangium ultimum, 72 h, read-out: Percent Fungus Growth Inhibition. The format is cell-based.

As usually defined, the inhibition is the change of the read-out against control, counted positive when it falls.

For the molecule “3-chloro-5-[methylaminocarbonyloxy)phenoxyl]-4H-1,2,6-thiadiazin-4-one [Compound 36]”, the “Percent Fungus Growth Inhibition” value was determined as 30% in the assay with Fusarium solani (5 ppm); 45% in the assay with Fusarium solani (10 ppm); 60% with Fusarium solani (20 ppm); 90% with Fusarium solani (40 ppm); 0% in the assay on Pythium ultimum (5 ppm); 42% in the assay with Pythium ultimum (10 ppm). Further, the “Percent Fungus Growth Inhibition” value with Pythium ultimum (20 ppm) and with Pythium ultimum (40 ppm) was 100% each time.
In the case of `O=c1c(Cl)nsnc1Oc1ccccc1` [Compound 2, 3-chloro-5-phenoxy-4H--1,2,6-thiadiazin-4-one], the inhibition at 5 ppm was 53% in the assay with Fusarium solani (5 ppm) and 0% in the assay on Pythium ultimum (5 ppm). The inhibition at 10 ppm with Fusarium solani (10 ppm) turned out to be 65%; in the assay with Pythium ultimum (10 ppm), 42%. Also, the inhibition at 20 ppm in the assay on Fusarium solani (20 ppm) stood at 76%; in the assay on Pythium ultimum (20 ppm), 100%. For the same molecule, the inhibition at 40 ppm with Fusarium solani and in the assay with Pythium ultimum (40 ppm) was 100% throughout.
For `Cc1ccc(Oc2nsnc(Cl)c2=O)cc1` [Compound 3, 3-chloro-5-(4-methylphenoxy)-4H--1,2,6-thiadiazin-4-one], the values for the inhibition at 5 ppm with Fusarium solani (5 ppm) and in the assay on Pythium ultimum (5 ppm) were 35% and 20%, respectively. In addition, the values for the inhibition at 10 ppm in the assay on Fusarium solani (10 ppm) and with Pythium ultimum (10 ppm) were 53% and 100%, respectively. Moreover, the inhibition at 20 ppm in the assay on Fusarium solani (20 ppm) is 65%; in the assay with Pythium ultimum (20 ppm), 100%. The inhibition at 40 ppm in the assay on Fusarium solani is 65%; with Pythium ultimum (40 ppm), 100%.
For `CC(C)(C)c1ccc(Oc2nsnc(Cl)c2=O)cc1` [Compound 4, 3-chloro-5-(4-tert-butylphnoxy)-4H--1,2,6-thiadiazin-4-one], the inhibition at 5 ppm in the assay on Fusarium solani (5 ppm) and in the assay on Pythium ultimum (5 ppm) was 0% in each case. Besides, the inhibition at 10 ppm in the assay with Fusarium solani (10 ppm) was 0%; with Pythium ultimum (10 ppm) it was 20%. Also, the inhibition at 20 ppm in the assay on Fusarium solani (20 ppm) and with Pythium ultimum (20 ppm) was 0% in each case. In addition, the inhibition at 40 ppm with Fusarium solani is 8%; with Pythium ultimum (40 ppm), 0%.
Turning to `COc1ccc(Oc2nsnc(Cl)c2=O)cc1` [Compound 5, 3-chloro-5-(4-methoxyphenoxy)4H--1,2,6-thiadiazin-4-one], the results for the inhibition at 5 ppm in the assay with Fusarium solani (5 ppm) and in the assay on Pythium ultimum (5 ppm) were 18% and 0%, respectively. The values for the inhibition at 10 ppm in the assay on Fusarium solani (10 ppm) and in the assay on Pythium ultimum (10 ppm) were 35% and 42%, respectively. Besides, the inhibition at 20 ppm stood at 6% in the assay on Fusarium solani (20 ppm) and 76% in the assay on Pythium ultimum (20 ppm). Besides, the inhibition at 40 ppm was found to be 71% in the assay on Fusarium solani and 100% with Pythium ultimum (40 ppm).
With `CCCCOc1ccc(Oc2nsnc(Cl)c2=O)cc1` [Compound 6, 3-chloro-5-(4-n-butoxyphenoxy)-4H--1,2,6-thiadiazin-4-one], the inhibition at 5 ppm in the assay on Fusarium solani (5 ppm) and with Pythium ultimum (5 ppm) was 0% in each case. Besides, the inhibition at 10 ppm with Fusarium solani (10 ppm) and with Pythium ultimum (10 ppm) was 0% each time. For the same molecule, the inhibition at 20 ppm with Fusarium solani (20 ppm) and in the assay on Pythium ultimum (20 ppm) was 0% throughout. Also, the results for the inhibition at 40 ppm with Fusarium solani and in the assay with Pythium ultimum (40 ppm) were 13% and 22%, respectively.
On to `CCOC(=O)c1ccc(Oc2nsnc(Cl)c2=O)cc1` [Compound 7, 3-chloro-5-(4-ethoxycarbonylphenoxy)-4H--1,2,6-thiadiazin-4-one], for which the results for the inhibition at 5 ppm in the assay with Fusarium solani (5 ppm) and in the assay on Pythium ultimum (5 ppm) were 42% and 11%, respectively. Further, the inhibition at 10 ppm with Fusarium solani (10 ppm) was determined as 54%; in the assay with Pythium ultimum (10 ppm) it was 29%. Also, the inhibition at 20 ppm with Fusarium solani (20 ppm) turned out to be 69%; with Pythium ultimum (20 ppm), 80%. For the same molecule, the inhibition at 40 ppm in the assay on Fusarium solani was 88%; in the assay on Pythium ultimum (40 ppm) it was 100%.
Regarding `CC(=O)Nc1ccc(Oc2nsnc(Cl)c2=O)cc1` [Compound 8, 5-(4-acetylaminophenoxy)-3-chloro-4H--1,2,6-thiadiazin-4-one], the inhibition at 5 ppm in the assay on Fusarium solani (5 ppm) worked out at 3%; in the assay on Pythium ultimum (5 ppm), 0%. Besides, the inhibition at 10 ppm in the assay on Fusarium solani (10 ppm) was 41%; in the assay on Pythium ultimum (10 ppm) it was 100%. In addition, the inhibition at 20 ppm in the assay on Fusarium solani (20 ppm) came out at 31%; in the assay with Pythium ultimum (20 ppm), 100%. The figures for the inhibition at 40 ppm in the assay on Fusarium solani and in the assay with Pythium ultimum (40 ppm) were 31% and 100%, respectively.
For the molecule `O=c1c(Cl)nsnc1Oc1ccc([N+](=O)[O-])cc1` [Compound 9, 3-chloro-5-(4-nitrophenoxy)-4H--1,2,6-thiadiazin-4-one], the inhibition at 5 ppm in the assay with Fusarium solani (5 ppm) is 65%; in the assay on Pythium ultimum (5 ppm), 0%. Further, the values for the inhibition at 10 ppm with Fusarium solani (10 ppm) and in the assay with Pythium ultimum (10 ppm) were 76% and 80%, respectively. For the same molecule, the inhibition at 20 ppm amounted to 53% with Fusarium solani (20 ppm) and 71% in the assay with Pythium ultimum (20 ppm). For the same molecule, the inhibition at 40 ppm in the assay on Fusarium solani and with Pythium ultimum (40 ppm) was 100% in each case.
Consider `N#Cc1ccc(Oc2nsnc(Cl)c2=O)cc1` [Compound 10, 3-chloro-5-(4-cyanophenoxy)-4H--1,2,6-thiadiazin-4-one], for which the inhibition at 5 ppm in the assay on Fusarium solani (5 ppm) is 17%; in the assay with Pythium ultimum (5 ppm), 11%. Moreover, the inhibition at 10 ppm stood at 33% in the assay on Fusarium solani (10 ppm) and 24% in the assay with Pythium ultimum (10 ppm). Further, the results for the inhibition at 20 ppm in the assay with Fusarium solani (20 ppm) and with Pythium ultimum (20 ppm) were 50% and 42%, respectively. The inhibition at 40 ppm stood at 75% in the assay with Fusarium solani and 64% with Pythium ultimum (40 ppm).
With `O=c1c(Cl)nsnc1Oc1ccc(F)cc1` [Compound 11, 3-chloro-5-(4-fluorophenoxy)-4H--1,2,6-thiadiazin-4-one], the inhibition at 5 ppm in the assay with Fusarium solani (5 ppm) is 17%; in the assay on Pythium ultimum (5 ppm), 0%. Also, the inhibition at 10 ppm in the assay with Fusarium solani (10 ppm) worked out at 33%; with Pythium ultimum (10 ppm) it was 18%. In addition, the values for the inhibition at 20 ppm in the assay with Fusarium solani (20 ppm) and with Pythium ultimum (20 ppm) were 83% and 82%, respectively. Also, the inhibition at 40 ppm in the assay on Fusarium solani turned out to be 75%; with Pythium ultimum (40 ppm), 100%.
Consider `O=c1c(Cl)nsnc1Oc1ccc(Cl)cc1` [Compound 12, 3-chloro-5-(4-chlorophenoxy)-4H--1,2,6-thiadiazin-4-one], for which the results for the inhibition at 5 ppm with Fusarium solani (5 ppm) and with Pythium ultimum (5 ppm) were 71% and 42%, respectively. The inhibition at 10 ppm in the assay on Fusarium solani (10 ppm) is 59%; in the assay on Pythium ultimum (10 ppm) it was 100%. The inhibition at 20 ppm was 65% in the assay on Fusarium solani (20 ppm) and 100% in the assay on Pythium ultimum (20 ppm). Further, the inhibition at 40 ppm in the assay with Fusarium solani and in the assay on Pythium ultimum (40 ppm) was 100% in each case.
Take `O=c1c(Cl)nsnc1Oc1cccc(Cl)c1` [Compound 13, 3-chloro-5-(3-chlorophenoxy)-4H--1,2,6-thiadiazin-4-one]: the inhibition at 5 ppm with Fusarium solani (5 ppm) was determined as 38%; in the assay on Pythium ultimum (5 ppm), 31%. In addition, the inhibition at 10 ppm with Fusarium solani (10 ppm) was 50%; in the assay on Pythium ultimum (10 ppm), 73%. The results for the inhibition at 20 ppm in the assay with Fusarium solani (20 ppm) and with Pythium ultimum (20 ppm) were 72% and 89%, respectively. For the same molecule, the inhibition at 40 ppm with Fusarium solani and with Pythium ultimum (40 ppm) was 100% throughout.
Consider `O=c1c(Cl)nsnc1Oc1ccccc1Cl` [Compound 14, 3-chloro-5-(2-chlorophenoxy)-4H--1,2,6-thiadiazin-4-one], for which the inhibition at 5 ppm worked out at 44% with Fusarium solani (5 ppm) and 31% with Pythium ultimum (5 ppm). The inhibition at 10 ppm in the assay with Fusarium solani (10 ppm) was determined as 100%; in the assay on Pythium ultimum (10 ppm), 53%. Moreover, the inhibition at 20 ppm in the assay on Fusarium solani (20 ppm) and in the assay on Pythium ultimum (20 ppm) was 100% in each case. Further, the inhibition at 40 ppm in the assay with Fusarium solani and in the assay on Pythium ultimum (40 ppm) was 100% each time.
Consider `O=c1c(Cl)nsnc1Oc1ccc(Br)cc1` [Compound 15, 3-chloro-5-(4-bromophenoxy)-4H--1,2,6-thiadiazin-4-one], for which the inhibition at 5 ppm in the assay with Fusarium solani (5 ppm) was 0%; in the assay with Pythium ultimum (5 ppm), 47%. Moreover, the inhibition at 10 ppm stood at 42% in the assay on Fusarium solani (10 ppm) and 76% with Pythium ultimum (10 ppm). Further, the results for the inhibition at 20 ppm with Fusarium solani (20 ppm) and in the assay on Pythium ultimum (20 ppm) were 42% and 80%, respectively. The inhibition at 40 ppm is 83% with Fusarium solani and 76% in the assay on Pythium ultimum (40 ppm).
With `O=c1c(Cl)nsnc1Oc1ccc(Cl)c(Cl)c1` [Compound 16, 3-chloro-5-(3,4-dichlorophenoxy)-4H--1,2,6-thiadiazin-4-one], the inhibition at 5 ppm in the assay on Fusarium solani (5 ppm) is 53%; with Pythium ultimum (5 ppm), 7%. The inhibition at 10 ppm with Fusarium solani (10 ppm) was 47%; in the assay on Pythium ultimum (10 ppm), 11%. Besides, the inhibition at 20 ppm with Fusarium solani (20 ppm) and in the assay on Pythium ultimum (20 ppm) was 47% each time. In addition, the inhibition at 40 ppm with Fusarium solani turned out to be 41%; with Pythium ultimum (40 ppm), 56%.
